Reference: US9738655B2, “Tetrahydroisoquinolines containing substituted azoles as factor XIa inhibitors” (BRISTOL-MYERS SQUIBB COMPANY, priority 2013, dated 2017)
Where a name gives a salt, the structure may show the parent alone. Read-outs that look alike come from different tables or passages of the source.

Experiments:
[1] = molecular target: purified human plasma kallikrein (Homo sapiens (Human), UniProt P03952); experiment: Plasma kallikrein enzyme inhibition assay (chromogenic substrate S-2302); type: biochemical
purified human plasma kallikrein, sequence (P03952 391-638): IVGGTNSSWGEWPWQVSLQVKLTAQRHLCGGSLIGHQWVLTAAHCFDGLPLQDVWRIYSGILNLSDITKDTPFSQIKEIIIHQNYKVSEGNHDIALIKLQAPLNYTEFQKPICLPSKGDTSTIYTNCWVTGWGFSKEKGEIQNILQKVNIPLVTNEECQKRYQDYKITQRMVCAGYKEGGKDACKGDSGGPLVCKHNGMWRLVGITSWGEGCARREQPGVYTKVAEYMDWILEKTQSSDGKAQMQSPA
purified human plasma kallikrein, sequence (P03952 20-390 partner): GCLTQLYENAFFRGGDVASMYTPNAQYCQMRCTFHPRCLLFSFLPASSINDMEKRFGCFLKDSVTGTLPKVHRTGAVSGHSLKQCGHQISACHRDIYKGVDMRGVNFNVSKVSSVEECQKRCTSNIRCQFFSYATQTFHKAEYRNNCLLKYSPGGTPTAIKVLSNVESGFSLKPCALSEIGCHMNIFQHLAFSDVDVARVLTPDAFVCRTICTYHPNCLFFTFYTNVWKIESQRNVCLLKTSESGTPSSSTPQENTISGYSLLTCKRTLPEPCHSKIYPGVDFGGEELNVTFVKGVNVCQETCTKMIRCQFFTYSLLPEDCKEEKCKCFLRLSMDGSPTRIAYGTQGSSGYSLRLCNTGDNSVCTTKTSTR
Procedure: The effectiveness of compounds of the present invention as inhibitors of the coagulation Factors XIa, VIIa, IXa, Xa, XIIa, plasma kallikrein or thrombin, can be determined using a relevant purified serine protease, respectively, and an appropriate synthetic substrate. The rate of hydrolysis of the chromogenic or fluorogenic substrate by the relevant serine protease was measured both in the absence and presence of compounds of the present invention. […] A decrease in the rate of absorbance or fluorescence change in the presence of inhibitor is indicative of enzyme inhibition. […] The results of this assay are expressed as the inhibitory constant, Ki.
Values of Ki were determined by allowing the protease to react with the substrate in the presence of the inhibitor.
The following relationships were used to calculate Ki values: (Vmax*S)/(Km+S); (vo−vs)/vs=I/(Ki(1+S/Km)) for a competitive inhibitor with one binding site; or vs/vo=A+((B−A)/1+((IC50/(I)n))); and Ki−IC50/((1+S/Km) for a competitive inhibitor where:

[2] = molecular target: purified human Factor XIa (Homo sapiens (Human), UniProt P03951); experiment: Factor XIa enzyme inhibition assay (chromogenic substrate S-2366)
purified human Factor XIa, sequence (P03951 388-625): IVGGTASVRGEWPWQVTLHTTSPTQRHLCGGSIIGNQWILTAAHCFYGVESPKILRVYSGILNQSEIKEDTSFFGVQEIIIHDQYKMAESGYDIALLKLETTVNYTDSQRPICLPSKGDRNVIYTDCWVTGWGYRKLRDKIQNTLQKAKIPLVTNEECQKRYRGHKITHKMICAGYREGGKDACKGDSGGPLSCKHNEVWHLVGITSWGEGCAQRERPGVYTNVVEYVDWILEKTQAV
purified human Factor XIa, sequence (P03951 19-387 partner): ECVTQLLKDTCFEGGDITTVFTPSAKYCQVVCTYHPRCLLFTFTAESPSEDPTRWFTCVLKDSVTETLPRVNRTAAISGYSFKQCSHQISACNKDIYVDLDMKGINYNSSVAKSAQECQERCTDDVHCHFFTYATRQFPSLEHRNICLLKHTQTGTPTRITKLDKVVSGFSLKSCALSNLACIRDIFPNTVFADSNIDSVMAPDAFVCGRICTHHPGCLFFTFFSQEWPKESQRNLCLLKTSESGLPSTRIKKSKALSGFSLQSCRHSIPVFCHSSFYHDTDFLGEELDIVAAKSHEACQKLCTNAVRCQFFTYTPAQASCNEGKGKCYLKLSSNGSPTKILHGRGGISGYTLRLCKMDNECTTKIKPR

[3] = measured at 25° C. (no asterisk), TFA salt
[4] = read-out: Factor XIa Ki, measured at 25° C., TFA salt
[5] = read-out: Factor XIa Ki, measured at 25° C.
[6] = measured at 25° C. (no asterisk)

| Ki [1, 3] [nM] | Ki [2, 4] [nM] | Ki [2, 5] [nM] | Ki [1, 6] [nM] | SMILES | also measured |
| --- | --- | --- | --- | --- | --- |
| 68.1 | 11.5 | – | – | CC(C)(O)C1CCN(c2cccc3c2CCN(C(=O)C2CC(c4cccc(Cl)c4F)=NO2)C3C(=O)Nc2ccc(C(=O)O)cc2)CC1 (centres unmarked) [Example 263, 4-(2-(3-(3-chloro-2-fluorophenyl)-4,5-dihydroisoxazole-5-carbonyl)-5-(4-(2-hydroxypropan-2-yl)piperidin-1-yl)-1,2,3,4-tetrahydroisoquinoline-1-carboxamido)benzoic acid, TFA salt] | – |
| 687 | 420 | – | – | COC1CCN(c2cccc3c2CCN(C(=O)C2(C)CC(c4cccc(Cl)c4F)=NO2)C3C(=O)Nc2ccc(C(=O)O)cc2)CC1 (centres unmarked) [Example 266, 4-(2-(3-(3-chloro-2-fluorophenyl)-5-methyl-4,5-dihydroisoxazole-5-carbonyl)-5-(4-methoxypiperidin-1-yl)-1,2,3,4-tetrahydroisoquinoline-1-carboxamido)benzoic acid, TFA salt] | – |
| 354 | 103 | – | – | COC1CCN(c2cccc3c2CCN(C(=O)C2(C)CC(c4cccc(Cl)c4F)=NO2)C3C(=O)Nc2ccc(C(=O)O)cc2)CC1 (centres unmarked) [Example 267, 4-(2-(3-(3-chloro-2-fluorophenyl)-5-methyl-4,5-dihydroisoxazole-5-carbonyl)-5-(4-methoxypiperidin-1-yl)-1,2,3,4-tetrahydroisoquinoline-1-carboxamido)benzoic acid, TFA salt] | – |
| – | – | 976 | – | COC1CCN(c2cccc3c2CCN(C(=O)c2cn(-c4cccc(Cl)c4F)cn2)[C@H]3C(=O)Nc2ccc(C(=O)O)cc2)CC1 [Example 272, (R)-4-(2-(1-(3-chloro-2-fluorophenyl)-1H-imidazole-4-carbonyl)-5-(4-methoxypiperidin-1-yl)-1,2,3,4-tetrahydroisoquinoline-1-carboxamido)benzoic acid, TFA salt] | Ki ([1]; measured at 37° C. (*)): > 6000 nM |
| – | – | < 5 | 7.65 | COC1CCN(c2cccc3c2CCN(C(=O)c2cn(-c4cccc(Cl)c4F)cn2)[C@@H]3C(=O)Nc2ccc(C(=O)O)cc2)CC1 [Example 273, (S)-4-(2-(1-(3-chloro-2-fluorophenyl)-1H-imidazole-4-carbonyl)-5-(4-methoxypiperidin-1-yl)-1,2,3,4-tetrahydroisoquinoline-1-carboxamide)benzoic acid, TFA salt] | – |
| – | – | < 5 | 19.8 | COC1CCN(c2cccc3c2CCN(C(=O)c2cnn(-c4cccc(Cl)c4F)c2N)[C@@H]3C(=O)Nc2ccc(C(=O)O)cc2)CC1 [Example 285, (S)-4-(2-(5-amino-1-(3-chloro-2-fluorophenyl)-1H-pyrazole-4-carbonyl)-5-(4-methoxypiperidin-1-yl)-1,2,3,4-tetrahydroisoquinoline-1-carboxamido)benzoic acid, TFA salt] | – |
| – | – | 266 | 3290 | COC1CCN(c2cccc3c2CCN(C(=O)c2cnn(-c4cccc(Cl)c4F)c2N)[C@H]3C(=O)Nc2ccc(C(=O)O)cc2)CC1 [Example 286, (R)-4-(2-(5-amino-1-(3-chloro-2-fluorophenyl)-1H-pyrazole-4-carbonyl)-5-(4-methoxypiperidin-1-yl)-1,2,3,4-tetrahydroisoquinoline-1-carboxamido)benzoic acid, TFA salt] | – |
| – | – | < 5 | 1.82 | CN1CCN(c2cccc3c2CCN(C(=O)c2cn(-c4cccc(Cl)c4F)nn2)[C@@H]3C(=O)Nc2ccc(C(=O)O)cc2)CC1=O [Example 287, (S)-4-(2-(1-(3-chloro-2-fluorophenyl)-1H-1,2,3-triazole-4-carbonyl)-5-(4-methyl-3-oxopiperizin-1-yl)-1,2,3,4-tetrahydroisoquinoline-1-carboxamido)benzoic acid, TFA salt] | – |
| – | – | 155 | 824 | CN1CCN(c2cccc3c2CCN(C(=O)c2cn(-c4cccc(Cl)c4F)nn2)[C@H]3C(=O)Nc2ccc(C(=O)O)cc2)CC1=O [Example 288, (R)-4-(2-(1-(3-chloro-2-fluorophenyl)-1H-1,2,3-triazole-4-carbonyl)-5-(4-methyl-3-oxopiperazin-1-yl)-1,2,3,4-tetrahydroisoquinoline-1-carboxamido)benzoic acid, TFA salt] | – |
| 1280 | 46.3 | – | – | COC1CCN(c2cccc3c2CCN(C(=O)C2CC(c4c(C(F)(F)F)ccc(Cl)c4F)=NO2)C3C(=O)Nc2ccc(C(=O)O)cc2)CC1 (centres unmarked) [Example 297, 4-(2-(3-(3-chloro-2-fluoro-6-(trifluoromethyl)phenyl)-4,5-dihydroisoxazole-5-carbonyl)-5-(4-methoxypiperidin-1-yl)-1,2,3,4-tetrahydroisoquinoline-1-carboxamido)benzoic acid, TFA salt] | – |
| 1010 | 64.8 | – | – | COC1CCN(c2cccc3c2CCN(C(=O)C2CC(c4c(C(F)(F)F)ccc(Cl)c4F)=NO2)C3C(=O)Nc2ccc(C(=O)O)cc2)CC1 (centres unmarked) [Example 298, 4-(2-(3-(3-chloro-2-fluoro-6-(trifluoromethyl)phenyl)-4,5-dihydroisoxazole-5-carbonyl)-5-(4-methoxypiperidin-1-yl)-1,2,3,4-tetrahydroisoquinoline-1-carboxamido)benzoic acid, TFA salt] | – |
| – | – | 62.7 | 316 | CO[C@@H]1CCN(c2cccc3c2CCN(C(=O)[C@H]2CC(c4cccc(Cl)c4F)=NO2)[C@H]3C(=O)Nc2ccc(C(=O)O)cc2)C1 [Example 299, 4-((R)-2-((R)-3-(3-chloro-2-fluorophenyl)-4,5-dihydroisoxazole-5-carbonyl)-5-((R)-3-methoxypyrrolidin-1-yl)-1,2,3,4-tetrahydroisoquinoline-1-carboxamido)benzoic acid, TFA salt] | – |
| – | – | < 5 | 4.15 | CO[C@@H]1CCN(c2cccc3c2CCN(C(=O)[C@H]2CC(c4cccc(Cl)c4F)=NO2)[C@@H]3C(=O)Nc2ccc(C(=O)O)cc2)C1 [Example 300, 4-((S)-2-((R)-3-(3-chloro-2-fluorophenyl)-4,5-dihydroisoxazole-5-carbonyl)-5-((R)-3-methoxypyrrolidin-1-yl)-1,2,3,4-tetrahydroisoquinoline-1-carboxamido)benzoic acid, TFA salt] | – |
| 593 | 165 | – | – | COC1CCN(c2cccc3c2CCN(C(=O)C2CCN(c4cccc(Cl)c4F)C2)C3C(=O)Nc2ccc(C(=O)O)cc2)CC1 (centres unmarked) [Example 307, 4-(2-(1-(3-Chloro-2-fluorophenyl)pyrrolidine-3-carbonyl) 5-(4-methoxypiperidin-1-yl)-1,2,3,4-tetrahydroisoquinoline-1-carboxamido)benzoic acid, TFA salt] | – |
| 79.7 | 6.03 | – | – | COC1CCN(c2cccc3c2CCN(C(=O)C2CCN(c4cccc(Cl)c4F)C2)C3C(=O)Nc2ccc(C(=O)O)cc2)CC1 (centres unmarked) [Example 308, 4-(2-(1-(3-Chloro-2-fluorophenyl)pyrrolidine-3-carbonyl)-5-(4-methoxypiperidin-1-yl)-1,2,3,4-tetrahydroisoquinoline-1-carboxamido)benzoic acid, TFA salt] | – |
| – | – | < 5 | 10.3 | COC1CCN(c2cccc3c2CCN(C(=O)c2cn(-c4cccc(Cl)c4F)nn2)[C@@H]3C(=O)Nc2ccc(C(=O)O)cc2)CC1 [Example 314, (S)-4-(2-(1-(3-chloro-2-fluorophenyl)-1H-1,2,3-triazole-4-carbonyl)-5-(4-methoxypiperidin-1-yl)-1,2,3,4-tetrahydroisoquinoline-1-carboxamido)benzoic acid, TFA salt] | – |
| – | – | < 5 | 19.6 | COC1CCN(c2cccc3c2CCN(C(=O)c2cnn(-c4cccc(Cl)c4F)c2)[C@@H]3C(=O)Nc2ccc(C(=O)O)cc2)CC1 [Example 315, (S)-4-(2-(1-(3-chloro-2-fluorophenyl)-1H-pyrazole-4-carbonyl)-5-(4-methoxypiperidin-1-yl)-1,2,3,4-tetrahydroisoquinoline-1-carboxamido)benzoic acid, TFA salt] | – |
| – | – | – | 578 | COC1CCN(c2cccc3c2CCN(C(=O)c2cnn(-c4cccc(Cl)c4F)c2)[C@H]3C(=O)Nc2ccc(C(=O)O)cc2)CC1 [Example 316, (R)-4-(2-(1-(3-chloro-2-fluorophenyl)-1H-pyrazole-4-carbonyl)-5-(4-methoxypiperidin-1-yl)-1,2,3,4-tetrahydroisoquinoline-1-carboxamido)benzoic acid, TFA salt] | Ki [2]: 42.9 nM |
| – | – | < 5 | 41.1 | CN(C)C(=O)C1CCN(c2cccc3c2CCN(C(=O)c2cnn(-c4cccc(Cl)c4F)c2N)C3C(=O)Nc2ccc(C(=O)O)cc2)CC1 (centres unmarked) [Example 317, 4-(2-(5-Amino-1-(3-chloro-2-fluorophenyl)-1H-pyrazole-4-carbonyl)-5-(4-(dimethylcarbamoyl)piperidin-1-yl)-1,2,3,4-tetrahydroisoquinoline-1-carboxamido)benzoic acid, TFA salt] | – |
| – | – | < 5 | 21.1 | CN1CCN(c2cccc3c2CCN(C(=O)c2cnn(-c4cccc(Cl)c4F)c2N)C3C(=O)Nc2ccc(C(=O)O)cc2)CC1=O (centres unmarked) [Example 318, 4-(2-(5-Amino-1-(3-chloro-2-fluorophenyl)-1H-pyrazole-4-carbonyl)-5-(4-methyl-3-oxopiperazin-1-yl)-1,2,3,4-tetrahydroisoquinoline-1-carboxamido)benzoic acid, TFA salt] | – |
| – | – | 158 | 124 | CN1CCN(c2cccc3c2CCN(C(=O)c2cncc(-c4cccc(Cl)c4)c2)C3C(=O)Nc2ccc(C(=O)O)cc2)CC1 (centres unmarked) [Example 320, 4-(2-(5-(3-Chlorophenyl)nicotinoyl)-5-(4-methylpiperazin-1-yl)-1,2,3,4-tetrahydroisoquinoline-1-carboxamido)benzoic acid, 2 TFA salt] | – |
| – | – | 236 | 177 | CN1CCN(c2cccc3c2CCN(C(=O)c2cncc(-c4ccccc4)c2)C3C(=O)Nc2ccc(C(=O)O)cc2)CC1 (centres unmarked) [Example 321, 4-(5-(4-Methylpiperazin-1-yl)-2-(5-phenylnicotinoyl)-1,2,3,4-tetrahydroisoquinoline-1-carboxamido)benzoic acid] | – |
